From patent publication US8586550B2, “Thiazole derivatives as SGLT2 inhibitors and pharmaceutical composition comprising same” (Green Cross Corporation, priority 2010, dated 2013) come the findings set out here.

For orientation: IC50 means the concentration that inhibits the measured activity by half.

The target in this assay is T1, Human SGLT2 (hSGLT2) (Homo sapiens, UniProt P31639).
T1 construct: expressed in transfected cells
T1 sequence (P31639 1-672): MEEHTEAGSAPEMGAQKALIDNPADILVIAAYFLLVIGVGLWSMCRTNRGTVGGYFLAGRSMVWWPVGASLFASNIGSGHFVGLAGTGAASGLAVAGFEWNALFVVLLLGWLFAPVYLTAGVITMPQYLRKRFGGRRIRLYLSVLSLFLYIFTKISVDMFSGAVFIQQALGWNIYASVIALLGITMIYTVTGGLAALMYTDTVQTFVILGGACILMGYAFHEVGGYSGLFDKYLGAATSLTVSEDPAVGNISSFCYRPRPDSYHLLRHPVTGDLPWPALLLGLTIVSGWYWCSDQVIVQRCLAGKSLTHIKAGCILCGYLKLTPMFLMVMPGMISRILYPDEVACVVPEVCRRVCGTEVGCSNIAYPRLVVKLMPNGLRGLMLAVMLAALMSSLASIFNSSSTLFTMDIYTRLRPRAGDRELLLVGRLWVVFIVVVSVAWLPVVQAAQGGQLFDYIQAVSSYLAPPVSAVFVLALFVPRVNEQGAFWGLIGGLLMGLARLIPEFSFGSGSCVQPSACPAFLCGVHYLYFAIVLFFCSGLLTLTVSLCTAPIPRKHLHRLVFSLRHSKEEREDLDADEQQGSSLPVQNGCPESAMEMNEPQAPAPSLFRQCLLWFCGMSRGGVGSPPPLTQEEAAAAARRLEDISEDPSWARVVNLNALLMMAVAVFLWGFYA
The experiment in a line: Sodium-dependent glucose transport (14C-AMG uptake) assay in CHO cells stably expressing hSGLT2. The settings on record: CHO cells expressing hSGLT2, 14C-AMG uptake, 37° C. for 2 h; single determinations; read-out: hSGLT2 Inhibitory Activity IC50. The class given is cell-based. Summed up: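 Uptake of 14C-α-methyl-D-glucopyranoside (8 μM labeled, 1 mM unlabeled, NaCl buffer pH 7.4) measured over 2 h at 37 °C with inhibitor in hSGLT2-transfected CHO cells after 10 min choline-buffer pretreatment. Radioactivity by liquid scintillation; IC50 from nonlinear regression.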
On to `CCOC(=O)OC[C@H]1O[C@@H](c2ccc(Cl)c(Cc3ncc(-c4ccsc4)s3)c2)[C@H](O)[C@@H](O)[C@@H]1O` [Example 165, ((2R,3S,4R,5R,6S)-6-(4-Chloro-3-((5-(thiophen-3-yl)thiazol-2-yl)methyl)phenyl)-3,4,5-trihydroxytetrahydro-2H-pyran-2-yl)methyl ethyl carbonate], for which the concentration for half-maximal inhibition (IC50) came to 7.39 nM.

Consider `OC[C@H]1O[C@@H](c2ccc(Br)c(Cc3ncc(-c4ccco4)s3)c2)[C@H](O)[C@@H](O)[C@@H]1O` [Example 46, (2S,3R,4R,5S,6R)-2-(4-Bromo-3-((5-(furan-2-yl)thiazol-2-yl)methyl)phenyl)-6-(hydroxymethyl)-tetrahydro-2H-pyran-3,4,5-triol], for which the concentration for half-maximal inhibition (IC50) was 1.89 nM.

As to `CCCCCCCc1cnc(Cc2cc([C@@H]3O[C@H](CO)[C@@H](O)[C@H](O)[C@H]3O)c3ccccc3c2OC)s1` [Example 100, (2S,3R,4R,5S,6R)-2-(3-((5-Heptylthiazol-2-yl)methyl)-4-methoxynaphthalen-1-yl)-6-(hydroxymethyl)-tetrahydro-2H-pyran-3,4,5-triol], the IC50 was 7.3 nM.

As for `COc1c(Cc2ncc(C)s2)cc([C@@H]2O[C@H](CO)[C@@H](O)[C@H](O)[C@H]2O)c2ccccc12` [Example 98, (2R,3S,4R,5R,6S)-2-(Hydroxymethyl)-6-(4-methoxy-3-((5-methylthiazol-2-yl)methyl)naphthalen-1-yl)-tetrahydro-2H-pyran-3,4,5-triol], the half-maximal inhibitory concentration (IC50) turned out to be 29.9 nM.

Turning to `OC[C@H]1O[C@@H](c2ccc(Cl)c(C3(c4ncc(-c5ccco5)s4)CC3)c2)[C@H](O)[C@@H](O)[C@@H]1O` [Example 3, (2S,3R,4R,5S,6R)-2-(4-Chloro-3-(1-(5-(furan-2-yl)thiazol-2-yl)cyclopropyl)phenyl)-6-(hydroxymethyl)-tetrahydro-2H-pyran-3,4,5-triol], the IC50 came to 47.1 nM.

As for `COc1cc(Cl)c(Cc2ncc(-c3ccco3)s2)cc1[C@@H]1O[C@H](CO)[C@@H](O)[C@H](O)[C@H]1O` [Example 69, (2S,3R,4R,5S,6R)-2-(4-Chloro-5-((5-(furan-2-yl)thiazol-2-yl)methyl)-2-methoxyphenyl)-6-(hydroxymethyl)tetrahydro-2H-pyran-3,4,5-triol], the IC50 amounted to 2.24 nM.

As for `OC[C@H]1O[C@@H](c2ccc(Cl)c(Cc3ncc(-c4ccc(F)cc4)s3)c2)[C@H](O)[C@@H](O)[C@@H]1O` [Example 11, (2S,3R,4R,5S,6R)-2-(4-Chloro-3-((5-(4-fluorophenyl)thiazol-2-yl)methyl)phenyl)-6-(hydroxymethyl)-tetrahydro-2H-pyran-3,4,5-triol], the half-inhibitory concentration (IC50) is 21.2 nM.

Consider `C=CCOc1cc(Cl)c(Cc2ncc(-c3ccsc3)s2)cc1[C@@H]1O[C@H](CO)[C@@H](O)[C@H](O)[C@H]1O` [Example 86, (2S,3R,4R,5S,6R)-2-(2-(Allyloxy)-4-chloro-5-((5-(thiophen-3-yl)thiazol-2-yl)methyl)phenyl)-6-(hydroxymethyl)tetrahydro-2H-pyran-3,4,5-triol], for which the IC50 was 0.934 nM.

As for “(2S,3R,4R,5S,6R)-2-(4-Fluoro-3-((5-(thiazol-3-yl)thiazol-2-yl)methyl)phenyl)-6-(hydroxymethyl)tetrahydro-2H-pyran-3,4,5-triol [Example 43]”, the IC50 is 7.36 nM.

As to `C=CCOC(=O)OC[C@H]1O[C@@H](c2ccc(Cl)c(Cc3ncc(-c4ccco4)s3)c2)[C@H](O)[C@@H](O)[C@@H]1O` [Example 163, Allyl ((2R,3S,4R,5R,6S)-6-(4-chloro-3-((5-(furan-2-yl)thiazol-2-yl)methyl)phenyl)-3,4,5-trihydroxytetrahydro-2H-pyran-2-yl)methyl carbonate], the half-maximal inhibitory concentration (IC50) is 11.4 nM.

On to `CC(C)c1cnc(Cc2cc([C@@H]3O[C@H](CO)[C@@H](O)[C@H](O)[C@H]3O)ccc2Cl)s1` [Example 16, (2S,3R,4R,5S,6R)-2-(4-Chloro-3-((5-isopropylthiazol-2-yl)methyl)phenyl)-6-(hydroxymethyl)-tetrahydro-2H-pyran-3,4,5-triol], for which the half-inhibitory concentration (IC50) stood at 51.4 nM.
